Assay [1] addresses T1, OXA-24/40 (Acinetobacter baumannii, UniProt Q8RLA6, K84D).
T1 construct: gene blaOXA-33
As to the kind of experiment: X-ray crystal structure of acyl-enzyme ([…] Å). Type of assay: binding.

The target in assay [2] is T1, OXA-24/40. As to the kind of experiment: X-ray crystal structure ([…] Å), intact β-lactam. Type of assay: binding.

Molecules are shown by their SMILES.

T1 sequence (Q8RLA6 32-275 K84D): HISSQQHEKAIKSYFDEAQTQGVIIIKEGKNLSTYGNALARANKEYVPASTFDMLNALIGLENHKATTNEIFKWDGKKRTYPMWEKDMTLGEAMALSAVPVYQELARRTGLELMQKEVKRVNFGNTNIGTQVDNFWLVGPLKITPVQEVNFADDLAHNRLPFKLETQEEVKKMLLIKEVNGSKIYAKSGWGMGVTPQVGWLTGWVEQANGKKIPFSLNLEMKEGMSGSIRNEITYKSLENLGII

In the case of `C[C@@H](O)[C@H]1C(=O)N2C(C(=O)O)=C(SCCN=CN)C[C@H]12` [imipenem], the “X-ray crystal structure of acyl-enzyme (2.28 Å)” value at OXA-24/40 [1] is “A predominant conformation for imipenem was observed in the K84D complex”.
As for `C[C@@H](O)[C@H]1C(=O)N2C(C(=O)O)=C(S[C@@H]3CN[C@H](C(=O)Nc4cccc(C(=O)O)c4)C3)[C@H](C)[C@H]12` [ertapenem], the “X-ray crystal structure (2.58 Å), intact β-lactam” value at OXA-24/40 [2] is reported as “In the K84D–ertapenem structure, ertapenem is bound as an intact β-lactam, yet in an unproductive binding mode”.

(Values after PMC9293634, “Conformational flexibility in carbapenem hydrolysis drives substrate specificity of the class D carbapenemase OXA-24/40” (The Journal of Biological Chemistry, 2022).)
